In US11760889B2, “Unsaturated fatty alcohol derivatives from natural oil metathesis” (priority 2012, dated 2023):

assay: Water-soluble herbicide formulation testing (standard dilution test, emulsion stability); type: physicochemical; settings: Adjuvant (anionic/nonionic) test sample; 342 ppm water;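 note: diluted in a 50 mL Nessler cylinder held at 30 °C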
Experimental: Surfactant candidates for water soluble herbicide applications are examined as a replacement for the anionic, nonionic, or anionic/nonionic blend portion and compared to a known industry adjuvant standard for use in paraquat, a water soluble herbicide concentrate formulation. A standard dilution test is conducted whereby the concentrates are diluted in water to determine if solubility is complete.
The cylinder is stoppered and inverted ten times. Solubility is recorded as complete or incomplete. Cylinders are allowed to stand and the amount (in mL) and type of separation are recorded after 30 min., 1 h, 2 h, and 24 h. Results of the solubility testing appear in Table 3 below.
An eight to ten mole alkyl phenol ethoxylate surfactant (0.7 g) is added and vigorously mixed for 30 s. Test sample (0.7 g) is added and mixing resumes for 30 s.
Test sample (0.7 g) is added and vigorously mixed for 30 s. Sodium linear alkylbenzene sulfonate (“NaLAS,” 0.7 g) is added and mixing resumes for 30 s.

Row | Substance | Emulsion stability, mL separation, 1 h [mL] | Emulsion stability, mL separation, 24 h [mL]
1 | 3 Mole Ethoxylated C10 Alcohol, Sodium Sulfate [A10-9] | 0 | 0
2 | 5 Mole Ethoxylated C12 Alcohol, Sodium Sulfate [A12-12] | 0 | 0
3 | 15 Mole Ethoxylated C10 Alcohol, Sodium Sulfate [A10-18] | 0 | 0
4 | 7 Mole Ethoxylated C12 Alcohol, Sodium Sulfate [A12-15] | 0 | 0

same assay, conditions: Anionic test sample; 342 ppm water

Row | Substance | Emulsion stability, mL separation, 1 h [mL] | Emulsion stability, mL separation, 24 h [mL]
5 | 3 Mole Ethoxylated C10 Alcohol, Sodium Sulfate [A10-9] | 0 | 0
6 | 5 Mole Ethoxylated C12 Alcohol, Sodium Sulfate [A12-12] | 0 | 0
7 | 15 Mole Ethoxylated C10 Alcohol, Sodium Sulfate [A10-18] | 0 | 0
8 | 7 Mole Ethoxylated C12 Alcohol, Sodium Sulfate [A12-15] | 0 | 0

same assay, conditions: Nonionic test sample; 342 ppm water

Row | Substance | Emulsion stability, mL separation, 1 h [mL] | Emulsion stability, mL separation, 24 h [mL]
9 | 3 Mole Ethoxylated C10 Alcohol, Sodium Sulfate [A10-9] | 0 | 0
10 | 5 Mole Ethoxylated C12 Alcohol, Sodium Sulfate [A12-12] | 0 | 0
11 | 15 Mole Ethoxylated C10 Alcohol, Sodium Sulfate [A10-18] | 0 | 0
12 | 7 Mole Ethoxylated C12 Alcohol, Sodium Sulfate [A12-15] | 0 | 0

assay: Anionic emulsifier: emulsion stability testing of EW concentrate (modified ASTM E1116-98); settings: 34 ppm water
Experimental: Turbidity changes are noted and recorded.
A Mohr pipette is used to feed EW concentrate to each cylinder. Cylinders are stoppered and inverted ten times, then allowed to stand for 0.5, 1, and 24 h while recording stability at each time as type and % separation.
Spontaneity is recorded according to the following criteria: (1) poor: very thin emulsion cloud with major separation of oil droplets; (2) fair: thin emulsion cloud with minor separation of oil droplets; (3) good: thin emulsion cloud reaches the bottom of the cylinder without separation of any type; (4) excellent: thick emulsion cloud reaches the bottom of the cylinder without separation of any type.

Row | % Separation, 1 h [%] | % Separation, 24 h [%] | Substance
13 | 1.5 | 2.2 | 15 Mole Ethoxylated C10 Alcohol, Ammonium Sulfate [A10-17]
14 | 3 | 4 | 3 Mole Ethoxylated C12 Alcohol, Ammonium Sulfate [A12-8]
15 | 3.6 | 3.8 | 5 Mole Ethoxylated C12 Alcohol, Ammonium Sulfate [A12-11]
16 | 4 | 4.1 | 1 Mole Ethoxylated C12 Alcohol, Ammonium Sulfate [A12-5]
17 | 3.9 | 5 | 5 Mole Ethoxylated C10 Alcohol, Ammonium Sulfate [A10-11]
18 | 4 | 3.8 | 15 Mole Ethoxylated C12 Alcohol, Ammonium Sulfate [A12-17]
19 | 3.8 | 4.3 | 1 Mole Ethoxylated C10 Alcohol, Ammonium Sulfate [A10-5]
20 | 3.5 | 4 | 7 Mole Ethoxylated C10 Alcohol, Ammonium Sulfate [A10-14]
21 | 3.9 | 4.1 | 7 Mole Ethoxylated C12 Alcohol, Ammonium Sulfate [A12-14]
22 | 3.5 | 3.9 | 3 Mole Ethoxylated C10 Alcohol, Ammonium Sulfate [A10-8]

Row | Substance | % Separation, 1 h [%] | % Separation, 24 h [%]
23 | 3 Mole Ethoxylated C10 Alcohol, Sodium Sulfate [A10-9] | 4 | 3.6
24 | 5 Mole Ethoxylated C12 Alcohol, Sodium Sulfate [A12-12] | 4.1 | 4.5
25 | 15 Mole Ethoxylated C10 Alcohol, Sodium Sulfate [A10-18] | 2.5 | 2.8
26 | 7 Mole Ethoxylated C12 Alcohol, Sodium Sulfate [A12-15] | 3.5 | 3.9

same assay, conditions: 1000 ppm water

Row | % Separation, 1 h [%] | % Separation, 24 h [%] | Substance
27 | 1.5 | 2 | 15 Mole Ethoxylated C10 Alcohol, Ammonium Sulfate [A10-17]
28 | 3.7 | 3.9 | 3 Mole Ethoxylated C12 Alcohol, Ammonium Sulfate [A12-8]
29 | 2.1 | 3 | 5 Mole Ethoxylated C12 Alcohol, Ammonium Sulfate [A12-11]
30 | 3 | 3.5 | 1 Mole Ethoxylated C12 Alcohol, Ammonium Sulfate [A12-5]
31 | 2.5 | 3.1 | 5 Mole Ethoxylated C10 Alcohol, Ammonium Sulfate [A10-11]
32 | 3.5 | 4.2 | 15 Mole Ethoxylated C12 Alcohol, Ammonium Sulfate [A12-17]
33 | 2.8 | 3 | 1 Mole Ethoxylated C10 Alcohol, Ammonium Sulfate [A10-5]
34 | 3.5 | 4.1 | 7 Mole Ethoxylated C10 Alcohol, Ammonium Sulfate [A10-14]
35 | 2.8 | 3.5 | 7 Mole Ethoxylated C12 Alcohol, Ammonium Sulfate [A12-14]
36 | 3.5 | 3.5 | 3 Mole Ethoxylated C10 Alcohol, Ammonium Sulfate [A10-8]

Row | Substance | % Separation, 1 h [%] | % Separation, 24 h [%]
37 | 3 Mole Ethoxylated C10 Alcohol, Sodium Sulfate [A10-9] | 3.5 | 3.9
38 | 5 Mole Ethoxylated C12 Alcohol, Sodium Sulfate [A12-12] | 3 | 3.8
39 | 15 Mole Ethoxylated C10 Alcohol, Sodium Sulfate [A10-18] | 4 | 4
40 | 7 Mole Ethoxylated C12 Alcohol, Sodium Sulfate [A12-15] | 3.5 | 4
